Measurements published in patent publication US12453707B2, “Vaginal films” (priority 2017, dated 2025).

What was measured:
[1] = X-ray diffraction solid state solubility of TFV in polymers; assay type: physicochemical; conditions: XRD of lyophilized polymer:TFV mass, pH 6-6.5
Procedure: X-ray diffraction (XRD) was used to study the solid state solubility of TFV in a series of polymers like HPMC-E5, HEC, and NaCMC-LV. TFV and polymers were dissolved together in milliQ water on a magnetic stirrer to achieve various polymer to TFV (P:T) ratios. pH was adjusted to 6-6.5 using sodium hydroxide equimolar to TFV. The solutions were then lyophilized using a Freezone 6 lyophilizer (Labconco, MO, USA). The powder obtained after lyophilization was scanned on a Philips X-ray diffractometer between 5-50° 2θ. A 37-minute scan was obtained. Similarly obtained XRD scans for lyophilized pure polymers and lyophilized TFV (pH 6-6.5) served as controls.

[2] = cited from earlier work

Compound: C[C@H](Cn1cnc2c(N)ncnc21)OCP(=O)(O)O [TFV, 9-[9(R)-2-(phosphonomethoxy)propyl]adenine]
- P:T ratio at which HPMC-E5, HEC and NaCMC-LV were able to solubilize TFV [1]: ≥ 3
- pKa, phosphate groups (first value) [2]: 2.1
- pKa, phosphate groups (second value) [2]: 4.3
- pKa, primary amine group [2]: 7.3
